# Measured values taken from PMC6351562, “Structure, function, and inhibition of drug reactivating human gut microbial β-glucuronidases” (Scientific Reports, 2019).
# Like-named read-outs stand apart in the source and are kept apart here.
# What was measured:
# Format in all cases: biochemical
# [1] = target: Clostridium perfringens GUS (CpGUS) (Clostridium perfringens, UniProt Q8VNV4); assay: biochemical
# [2] = target: T1, Faecalibacterium prausnitzii GUS (FpGUS) (Faecalibacterium duncaniae, UniProt C7H4D2); assay: In vitro inhibition assay (pNPG hydrolysis); settings: for IC50: pNPG 900 µM
# T1 sequence (C7H4D2 1-608): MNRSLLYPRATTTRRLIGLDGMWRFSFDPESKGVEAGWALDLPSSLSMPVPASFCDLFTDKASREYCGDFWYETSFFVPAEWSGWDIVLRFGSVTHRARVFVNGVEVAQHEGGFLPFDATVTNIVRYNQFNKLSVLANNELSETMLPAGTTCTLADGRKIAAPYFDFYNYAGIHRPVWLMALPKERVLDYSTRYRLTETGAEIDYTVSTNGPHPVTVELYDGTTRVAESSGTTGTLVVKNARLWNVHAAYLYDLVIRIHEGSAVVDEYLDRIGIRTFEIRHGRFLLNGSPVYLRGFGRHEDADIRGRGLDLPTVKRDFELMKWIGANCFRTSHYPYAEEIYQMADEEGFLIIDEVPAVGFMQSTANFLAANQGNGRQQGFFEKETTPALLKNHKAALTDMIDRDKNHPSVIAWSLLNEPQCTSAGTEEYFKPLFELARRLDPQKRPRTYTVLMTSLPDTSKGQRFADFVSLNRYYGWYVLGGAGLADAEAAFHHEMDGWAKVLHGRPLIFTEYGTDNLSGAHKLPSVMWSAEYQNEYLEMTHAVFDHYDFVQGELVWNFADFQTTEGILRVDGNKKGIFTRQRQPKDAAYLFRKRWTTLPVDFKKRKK
# [3] = target: T2, Bacteroides dorei GUS (BdGUS) (Phocaeicola dorei, UniProt I9FNR0); assay: In vitro inhibition assay (pNPG hydrolysis); settings: for IC50: pNPG 900 µM
# T2 sequence (I9FNR0 21-875): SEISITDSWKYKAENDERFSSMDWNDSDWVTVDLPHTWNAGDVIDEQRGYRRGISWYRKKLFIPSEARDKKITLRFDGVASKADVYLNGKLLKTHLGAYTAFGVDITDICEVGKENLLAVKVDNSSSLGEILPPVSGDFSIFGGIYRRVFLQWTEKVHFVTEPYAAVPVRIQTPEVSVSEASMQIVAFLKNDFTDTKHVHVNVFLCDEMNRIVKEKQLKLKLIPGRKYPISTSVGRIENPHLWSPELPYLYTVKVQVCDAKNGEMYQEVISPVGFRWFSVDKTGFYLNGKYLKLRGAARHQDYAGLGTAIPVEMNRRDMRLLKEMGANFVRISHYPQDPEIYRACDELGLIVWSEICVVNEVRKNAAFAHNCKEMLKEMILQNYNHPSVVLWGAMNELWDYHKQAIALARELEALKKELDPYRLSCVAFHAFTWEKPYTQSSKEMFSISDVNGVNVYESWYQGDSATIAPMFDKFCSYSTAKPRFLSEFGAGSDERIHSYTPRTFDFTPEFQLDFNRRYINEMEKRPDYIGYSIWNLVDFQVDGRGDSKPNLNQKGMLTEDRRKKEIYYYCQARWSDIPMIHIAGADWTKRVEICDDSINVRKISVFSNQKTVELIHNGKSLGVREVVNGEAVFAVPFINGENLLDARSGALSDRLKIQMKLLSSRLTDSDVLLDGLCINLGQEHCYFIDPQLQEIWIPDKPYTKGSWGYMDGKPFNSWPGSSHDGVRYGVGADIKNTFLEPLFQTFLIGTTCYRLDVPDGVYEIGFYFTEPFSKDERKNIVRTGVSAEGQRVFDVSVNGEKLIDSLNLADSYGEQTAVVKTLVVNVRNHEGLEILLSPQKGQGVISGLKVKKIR
# [4] = target: T3, Ruminococcus gnavus GUS (RgGUS) (Mediterraneibacter gnavus, UniProt A0A2N5PVZ8); assay: In vitro inhibition assay (pNPG hydrolysis)
# T3 sequence (A0A2N5PVZ8 1-603): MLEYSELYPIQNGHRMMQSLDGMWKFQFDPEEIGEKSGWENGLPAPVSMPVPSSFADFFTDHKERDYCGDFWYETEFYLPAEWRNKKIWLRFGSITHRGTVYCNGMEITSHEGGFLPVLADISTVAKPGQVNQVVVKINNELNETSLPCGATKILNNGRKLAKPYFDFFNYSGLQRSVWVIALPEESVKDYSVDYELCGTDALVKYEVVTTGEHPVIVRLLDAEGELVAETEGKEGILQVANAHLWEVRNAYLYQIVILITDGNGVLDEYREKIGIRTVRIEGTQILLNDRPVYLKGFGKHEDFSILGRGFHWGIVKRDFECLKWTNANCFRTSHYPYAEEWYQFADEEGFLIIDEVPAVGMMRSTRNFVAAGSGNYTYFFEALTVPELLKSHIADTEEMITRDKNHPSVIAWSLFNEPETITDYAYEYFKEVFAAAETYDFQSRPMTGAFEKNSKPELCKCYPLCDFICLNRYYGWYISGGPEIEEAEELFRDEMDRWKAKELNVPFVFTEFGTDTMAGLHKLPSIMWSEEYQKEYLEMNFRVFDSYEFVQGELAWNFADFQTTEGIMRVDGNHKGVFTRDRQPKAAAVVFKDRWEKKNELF
# [5] = pH 6.5, read-out: UNC10201652 (IC50, nM) pH 6.5
# [6] = 100 µM, pH 6.5, read-out: inhibition at 100 µM UNC10201652
# [7] = pH 7.5, 1 hour end point, read-out: UNC10201652 (IC50, nM) pH 7.5
# [8] = Inhibitor 1 (IC50, nM) pH 6.5, pH 6.5
# [9] = Inhibitor 1 (IC50, nM) pH 7.5, pH 7.5
SMILES,decrease in potency from pH 7.5 to pH 6.5 [1],IC50 ([1]; IC50),"IC50 [1, 5]","IC50 ([1]; pH 7.5, read-out: UNC10201652 (IC50, nM) pH 7.5)","inhibition at 100 µM [2, 6]","IC50 [2, 5]","IC50 [2, 7]","inhibition at 100 µM [3, 6]","IC50 [3, 5]","IC50 [3, 7]","IC50 ([4]; pH 7.5, pNPG 900 µM, read-out: UNC10201652 (IC50, nM) pH 7.5)","IC50 ([4]; read-out: UNC10201652 (IC50, nM) pH 6.5)","IC50 ([1]; Inhibitor 1 (IC50, nM) pH 6.5)","IC50 ([1]; Inhibitor 1 (IC50, nM) pH 7.5)","IC50 [2, 8]","IC50 [2, 9]","IC50 [3, 8]","IC50 [3, 9]",IC50 [4],"IC50 ([4]; read-out: Inhibitor 1 (IC50, nM) pH 7.5, pH 7.5, pNPG 900 µM)"
C1CCc2c(c(N3CCOCC3)nc3sc4c(N5CCNCC5)nnnc4c23)C1 [UNC10201652],6 fold,26 to 160 nM,160 ± 10 nM,26 ± 3 nM,< 80%,> 100000 nM,> 3000 nM,< 80%,> 100000 nM,> 25000 nM,> 100000 nM,> 100000 nM,–,–,–,–,–,–,–,–
CCOc1ccc(NC(=S)N(CCO)Cc2cc3cc(C)cc(C)c3[nH]c2=O)cc1 [Inhibitor 1],–,–,–,–,–,–,–,–,–,–,–,–,> 100000 nM,> 100000 nM,> 100000 nM,> 100000 nM,> 100000 nM,> 100000 nM,> 100000 nM,> 100000 nM
